One may read the IC50 as the point on the concentration scale where inhibition reaches its midpoint.

The target of this experiment is human PCSK9 (Homo sapiens, UniProt Q8NBP7). Kind of experiment: PCSK9 ligand binding TR-FRET assay (interference with binding of human PCSK9 to human LDLR). The conditions noted are these: for Max % inhibition: PCSK9 FRET assay, efficacy (Amax), 100% = 1 uM unlabeled human PCSK9, 0% = DMSO; for IC50: TR-FRET, human PCSK9 Alexa Fluor 647 / human LDLR extracellular domain-Europium Kryptate, read-out: PCSK9 FRET Assay IC50. An outline of the steps: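 Threefold compound dilutions were pre-incubated 30 min with PCSK9, after which 4 nM Europium Kryptate-tagged human LDLR ectodomain was added for a further 2 h.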
Sequence of human PCSK9 (Q8NBP7 153-692): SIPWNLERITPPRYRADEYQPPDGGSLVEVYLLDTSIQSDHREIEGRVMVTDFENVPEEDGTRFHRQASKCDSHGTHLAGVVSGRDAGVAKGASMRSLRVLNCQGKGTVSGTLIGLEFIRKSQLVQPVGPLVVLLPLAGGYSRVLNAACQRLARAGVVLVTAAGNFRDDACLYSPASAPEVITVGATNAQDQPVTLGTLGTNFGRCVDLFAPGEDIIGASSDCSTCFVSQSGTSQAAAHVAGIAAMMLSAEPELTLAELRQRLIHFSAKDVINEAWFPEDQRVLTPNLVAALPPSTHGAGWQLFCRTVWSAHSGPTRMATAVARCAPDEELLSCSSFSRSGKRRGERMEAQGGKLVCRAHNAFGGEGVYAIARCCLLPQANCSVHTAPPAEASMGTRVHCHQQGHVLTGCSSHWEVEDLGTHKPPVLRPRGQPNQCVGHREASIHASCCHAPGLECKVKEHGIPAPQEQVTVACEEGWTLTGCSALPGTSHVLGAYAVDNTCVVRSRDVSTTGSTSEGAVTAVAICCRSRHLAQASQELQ
Sequence of human PCSK9 (Q8NBP7 31-152 partner limits assumed): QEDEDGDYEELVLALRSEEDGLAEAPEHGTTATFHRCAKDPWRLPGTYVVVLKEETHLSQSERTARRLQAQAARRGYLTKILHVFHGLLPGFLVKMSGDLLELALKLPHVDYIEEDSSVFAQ

With `COC[C@@H]1NC(=O)[C@H](C)N(Cc2ccc(Cl)cc2Oc2ccc(-c3ccc(C(=O)NC4CCNCC4)nc3)cc2)C(=O)C[C@@H](Cc2ccccc2)C(=O)N(C)[C@@H](C)CNC(=O)C[C@H](Cc2ccc(Cl)cc2)N(C)C1=O.O=C(O)C(F)(F)F` [Compound 122, 5-(4-(2-(((2S,5S,8S,13S,16R)-16-benzyl-8-(4-chlorobenzyl)-5-(methoxymethyl)-2,7,13,14-tetramethyl-3,6,10,15,18-pentaoxo-1,4,7,11,14-pentaazacyclooctadecan-1-yl)methyl)-5-chlorophenoxy)phenyl)-N-(piperidin-4-yl)picolinamide trifluoroacetate], the Max % inhibition was determined as 55.05% and the IC50 worked out at 8.7 nM.

In the case of `COC[C@@H]1NC(=O)[C@H](C)N(Cc2ccc(Cl)cc2Oc2ccc(-c3cnc4n3CCN(C(C)C)C4)cc2)C(=O)C[C@@H](Cc2ccccc2)C(=O)N(C)[C@@H](C)CNC(=O)C[C@H](Cc2ccc(Cl)cc2)N(C)C1=O.O=C(O)C(F)(F)F` [Compound 123, (2S,5S,8S,13S,16R)-16-benzyl-1-(4-chloro-2-(4-(7-isopropyl-5,6,7,8-tetrahydroimidazo[1,2-a]pyrazin-3-yl)phenoxy)benzyl)-8-(4-chlorobenzyl)-5-(methoxymethyl)-2,7,13,14-tetramethyl-1,4,7,11,14-pentaazacyclooctadecane-3,6,10,15,18-pentaone trifluoroacetate], the Max % inhibition was 74.19% and the IC50 was determined as 3.4 nM.

On to `COC[C@@H]1NC(=O)[C@H](C)N(Cc2ccc(Cl)cc2Oc2ccc(-c3cnc4n3CCN(C(=O)C3CCNC3)C4)cc2)C(=O)C[C@@H](Cc2ccccc2)C(=O)N(C)[C@@H](C)CNC(=O)C[C@H](Cc2ccc(Cl)cc2)N(C)C1=O.O=C(O)C(F)(F)F` (stereo partly drawn) [Compound 124, (2S,5S,8S,13S,16R)-16-benzyl-1-(4-chloro-2-(4-(7-(pyrrolidine-3-carbonyl)-5,6,7,8-tetrahydroimidazo[1,2-a]pyrazin-3-yl)phenoxy)benzyl)-8-(4-chlorobenzyl)-5-(methoxymethyl)-2,7,13,14-tetramethyl-1,4,7,11,14-pentaazacyclooctadecane-3,6,10,15,18-pentaone trifluoroacetate], for which the Max % inhibition was 100.50% and the IC50 is 3.8 nM.

As for `C[C@H]1CNC(=O)C[C@H](Cc2ccc(Cl)cc2)N(C)C(=O)[C@H](CO)NC(=O)[C@H](C)N(Cc2ccc(Cl)cc2Oc2ccc3c(c2)C(=O)N(C2CCNCC2)C3)C(=O)C[C@@H](Cc2ccccc2)C(=O)N1C` [Compound 125, (2S,5S,8S,13S,16R)-16-benzyl-1-(4-chloro-2-((3-oxo-2-(piperidin-4-yl)isoindolin-5-yl)oxy)benzyl)-8-(4-chlorobenzyl)-5-(hydroxymethyl)-2,7,13,14-tetramethyl-1,4,7,11,14-pentaazacyclooctadecane-3,6,10,15,18-pentaone], the Max % inhibition amounted to 60.93% and the IC50 was 28 nM.

In the case of `COC[C@@H]1NC(=O)[C@H](C)N(Cc2ccc(Cl)cc2Oc2ccc(-c3cnc(CN(C)C)n3C)cc2)C(=O)C[C@@H](Cc2ccccc2)C(=O)N(C)[C@@H](C)CNC(=O)C[C@H](Cc2ccc(Cl)cc2)N(C)C1=O` [Compound 126, (2S,5S,8S,13S,16R)-16-benzyl-1-(4-chloro-2-(4-(2-((dimethylamino)methyl)-1-methyl-1H-imidazol-5-yl)phenoxy)benzyl)-8-(4-chlorobenzyl)-5-(methoxymethyl)-2,7,13,14-tetramethyl-1,4,7,11,14-pentaazacyclooctadecane-3,6,10,15,18-pentaone], the Max % inhibition is 101.12% and the IC50 is 1.5 nM.

Take `COC[C@@H]1NC(=O)[C@H](C)N(Cc2ccc(Cl)cc2Oc2ccc(-n3cc(CN4CCCC4)nn3)cc2)C(=O)C[C@@H](Cc2ccccc2)C(=O)N(C)[C@@H](C)CNC(=O)C[C@H](Cc2ccc(Cl)cc2)N(C)C1=O` [Compound 127, (2S,5S,8S,13S,16R)-16-benzyl-1-(4-chloro-2-(4-(4-(pyrrolidin-1-ylmethyl)-1H-1,2,3-triazol-1-yl)phenoxy)benzyl)-8-(4-chlorobenzyl)-5-(methoxymethyl)-2,7,13,14-tetramethyl-1,4,7,11,14-pentaazacyclooctadecane-3,6,10,15,18-pentaone]: the Max % inhibition is on record as 55.01% and the IC50 was 7.8 nM.

Turning to `COC[C@@H]1NC(=O)[C@H](C)N(Cc2ccc(Cl)cc2Oc2ccc(-n3cc(CN4CCCCC4)nn3)cc2)C(=O)C[C@@H](Cc2ccccc2)C(=O)N(C)[C@@H](C)CNC(=O)C[C@H](Cc2ccc(Cl)cc2)N(C)C1=O` [Compound 128, (2S,5S,8S,13S,16R)-16-benzyl-1-(4-chloro-2-(4-(4-(piperidin-1-ylmethyl)-1H-1,2,3-triazol-1-yl)phenoxy)benzyl)-8-(4-chlorobenzyl)-5-(methoxymethyl)-2,7,13,14-tetramethyl-1,4,7,11,14-pentaazacyclooctadecane-3,6,10,15,18-pentaone], the Max % inhibition is on record as 51.35% and the IC50 came out at 20.4 nM.

Turning to `COC[C@@H]1NC(=O)[C@H](C)N(Cc2ccc(Cl)cc2Oc2ccc(-c3nnc4n3CCN(C(=O)[C@@H]3CCNC3)C4)cc2)C(=O)C[C@@H](Cc2ccccc2)C(=O)N(C)[C@@H](C)CNC(=O)C[C@H](Cc2ccc(Cl)cc2)N(C)C1=O` [Compound 129, (2S,5S,8S,13S,16R)-16-benzyl-1-(4-chloro-2-(4-(7-((R)-pyrrolidine-3-carbonyl)-5,6,7,8-tetrahydro-[1,2,4]triazolo[4,3-a]pyrazin-3-yl)phenoxy)benzyl)-8-(4-chlorobenzyl)-5-(methoxymethyl)-2,7,13,14-tetramethyl-1,4,7,11,14-pentaazacyclooctadecane-3,6,10,15,18-pentaone], the Max % inhibition came out at 94.48% and the IC50 is 6.3 nM.

On to `C[C@H]1CNC(=O)C[C@H](Cc2ccc(Cl)cc2)N(C)C(=O)[C@H](CO)NC(=O)[C@H](C)N(Cc2ccc(Cl)cc2Oc2ccc3c(c2)C(=O)N(C2CCN(C)CC2)C3)C(=O)C[C@@H](Cc2ccccc2)C(=O)N1C` [Compound 130, (2S,5S,8S,13S,16R)-16-benzyl-1-(4-chloro-2-((2-(1-methylpiperidin-4-yl)-3-oxoisoindolin-5-yl)oxy)benzyl)-8-(4-chlorobenzyl)-5-(hydroxymethyl)-2,7,13,14-tetramethyl-1,4,7,11,14-pentaazacyclooctadecane-3,6,10,15,18-pentaone], for which the Max % inhibition is reported as 77.42% and the IC50 stood at 20.3 nM.

Consider `COC[C@@H]1NC(=O)[C@H](C)N(Cc2ccc(Cl)cc2Oc2ccc(-c3nnc4n3CCN(C(=O)[C@H]3CCNC3)C4)cc2)C(=O)C[C@@H](Cc2ccccc2)C(=O)N(C)[C@@H](C)CNC(=O)C[C@H](Cc2ccc(Cl)cc2)N(C)C1=O` [Compound 131, (2S,5S,8S,13S,16R)-16-benzyl-1-(4-chloro-2-(4-(7-((S)-pyrrolidine-3-carbonyl)-5,6,7,8-tetrahydro-[1,2,4]triazolo[4,3-a]pyrazin-3-yl)phenoxy)benzyl)-8-(4-chlorobenzyl)-5-(methoxymethyl)-2,7,13,14-tetramethyl-1,4,7,11,14-pentaazacyclooctadecane-3,6,10,15,18-pentaone], for which the Max % inhibition came to 90.72% and the IC50 stood at 9.9 nM.
